The values that follow come from paper PMC9061999, “Application of the Adverse Outcome Pathway Concept to In Vitro Nephrotoxicity Assessment: Kidney Injury due to Receptor-Mediated Endocytosis and Lysosomal Overload as a Case Study” (Frontiers in Toxicology, 2022).

In this data set the test system is RPTEC/TERT1 and NRK-52E cells. Put plainly: In vitro key event assays (LAMP-1/2, cathepsin D, cell viability) compared across both cell models. Format: cell-based, human and rat. As for the experimental part: Cells were plated into 96-well tissue culture plates (10,000 cells per well) and were allowed to grow for 48 h (NRK-52E) respectively 10 d (RPTEC/TERT1) prior to 24 h treatment with model stressors. Stock solution for each compound (2000 µM) was prepared in growth medium and serial dilutions (1:1) were made before each experiment. At the end of the 24 h treatment, cell viability was measured using the CellTiter-Glo® assay (Promega). CellTiter-Glo® reagents and buffer were mixed under light-protected conditions and 100 µL CellTiter-Glo® solution was added directly to each well followed by 2 min incubation on an orbital shaker and 10 min incubation at room temperature in the dark to stabilize the luminescence signal. The suspension was mixed via pipetting and 50 µL were transferred into white 96-well plates (PerkinElmer Inc.). The luminescence signal was measured on a multiplate reader (Mithras LB 940; Berthold). Each assay was performed in three independent experiments carried out in triplicates.
For immunocytochemistry experiments, cells were seeded into 8-well chamber slides (Ibidi) at a density of 140 cells per µL in 300 µL growth medium and were allowed to grow for 48 h (NRK-52E) or 10 d (RPTEC/TERT1) respectively. For treatment, stock solutions (1,000 µM) of compounds dissolved in growth medium were freshly prepared and serial dilutions were made before exposure of cells for 24 h. After treatment, cells were washed twice with 150 µL PBS and fixed with 150 µL 4% paraformaldehyde in 1 x PBS for 10 min at room temperature. After fixation, cells were washed 10 min with 150 µL PBS on an orbital shaker followed by permeabilization with 150 µL 0.2% Triton X-100 in 1 x PBS for 5 min at room temperature on an orbital shaker. The permeabilized cells were washed twice with 1 x PBS (150 µL) for 10 min at room temperature on an orbital shaker and then incubated with 150 µL 5% BSA dissolved in 1 x PBS for 1 h at room temperature to block unspecific binding sites. After blocking, 100 µL primary antibody diluted 1:100 in 1% BSA in 1 x PBS were directly pipetted onto the cells and incubated overnight at 4°C. The following antibodies were employed for NRK-52E cells: Anti-LAMP-1 monoclonal IgG1 kappa mouse antibody (Santa Cruz; sc-20011), anti-Cathepsin D mouse monoclonal IgG2 kappa antibody (Santa Cruz; sc-377124); for RPTEC/TERT1 cells: Anti-LAMP-2 monoclonal mouse antibody (Santa Cruz; sc-18822), anti-Cathepsin D mouse monoclonal IgG2b kappa (Novus Biologicals; NBP1-04278); for both cell lines anti-megalin mouse monoclonal IgG1 antibody (Santa Cruz, sc-515772).
After incubation with primary antibody, cells were washed three times for 15 min with 0.2% Tween in 1 x PBS (150 µL) on an orbital shaker. Cells were incubated for 1 h at room temperature with 100 µL CFL 488-conjugated mouse IgG kappa binding protein (1:50) (m-IgGκ BP-CFL 488; Santa Cruz, sc-516176). After incubation the cells were washed three times for 15 min with 0.2% Tween in 1 x PBS on an orbital shaker and once with 150 µL sterile water. Phalloidin-tetramethylrhodamine B isothiocyanate (TRITC) was used to stain the cytoskeleton and was diluted in 100% methanol to a stock concentration of 0.1 mg/ml and further diluted in 1 x PBS to a working concentration of 0.095 µM. After cells were washed once with 1 x PBS for 10 min at room temperature 150 µL phalloidin-TRITC working solution was added and the cells were incubated on an orbital shaker at room temperature for 60–90 min. After incubation, phalloidin-TRITC solution was aspirated, and the cells were washed once with 1 x PBS. Chamber slides were allowed to dry for 15 min at room temperature. To preserve fluorescence 50–100 µL DAPI mounting medium (Vectashield®; Vectorlab, Biozol) was added to the cells and chamber slides were stored at 4°C in the dark until image acquisition. […]

As to Polymyxin B, the “Cytotoxicity compared between RPTEC/TERT1 and NRK-52E cells” value (24 h treatment, cell viability) is recorded as “RPTEC/TERT1 cells were found to be significantly more sensitive”. The “Rank order of effects of the 3 polymyxin derivatives across all KEs” value (RPTEC/TERT1 and NRK-52E, 24 h) is “most active”. In addition, under “RPTEC/TERT1 and NRK-52E, 24 h, immunocytochemistry, quantitative image analysis”, the “Effect on cathepsin D fluorescence intensity (KE2)” value was “concentration-dependent decrease in fluorescence intensity”. In addition, the “Effect on LAMP-1/2 expression (KE1)” value (RPTEC/TERT1 and NRK-52E, 24 h, immunofluorescence image analysis) is on record as “significant, concentration-dependent increase in LAMP-1/2 expression”. Moreover, the “Effect on cell viability / cytotoxicity (KE3)” value (RPTEC/TERT1 and NRK-52E, 24 h treatment, CellTiter-Glo) is listed as “concentration-dependent decrease in cell viability”.
